Test results as given in US10869931B2, “Polyethylene glycol-modified angiogenesis inhibitor HM-1 and application thereof” (NANJING ANJI BIOLOGICAL TECHNOLOGY CO.,LTD, priority 2016, dated 2020).
Several values for one entry are separate records, joined by “and”; a condition that tells them apart may be missing. Equal entries are not always repeated. Marks after values point to notes of the source that are not given here. Where no end group is shown, it is not given here.

Assays:
[1] = test system: Cervical cancer tumor cells; experiment: MTT proliferation inhibition, cervical cancer cells; format: cell-based, human; parameters: concentration or dose not given beside the values; conditions: 48 h
Description: (§1) The activity of mPEG-HM-1 to inhibit the growth of various tumor cells was examined by MTT assay. The tumor cells were cultured to a concentration of 90% or more in a 37° C., 5% CO2 incubator and collected by trypsinization. The cells were resuspended in the culture medium and counted under a microscope to adjust the cell concentration to 2×10^4 cells/mL, the cell suspension was inoculated into a 96-well plate at 100 μL/well and incubated overnight at 37° C. in a 5% CO2 incubator. mPEG-HM-1 was diluted with the culture solution to each predetermined concentration. Docetaxel is diluted to the final concentration with the culture medium. After the cells were fully attached, each dilution was added to a 96-well plate (100 μL/well). The mPEG-HM-1 dilution was added as a drug-administered group, and docetaxel was added as a positive control group, and a culture solution without any drug was used as a negative control group. Incubate for 48 h at 37° C. in a 5% CO2 incubator. 5 mg/mL of MTT was added to a 96-well plate at 20 μL per well, and incubation was continued for 4 hours. The medium was aspirated, dissolved in 150 μL of DMSO per well, and gently mixed by shaking for 10 min. The absorbance was measured at a measurement wavelength of 570 nm and a reference wavelength of 630 nm using a microplate reader, and the rate of growth inhibition (proliferation inhibition, PI) was calculated. The formula is as follows: PI (%)=1−administration group/negative group
(§2) The test was repeated 3 times independently, and the results obtained by the test were expressed as mean±SD, and the test results are shown in Table 15 to Table 18.

[2] = test system: Bladder Cancer tumor cells; experiment: MTT proliferation inhibition, bladder cancer cells; format: cell-based, human; parameters: concentration or dose not given beside the values; conditions: 48 h
Description: as §1, §2

[3] = test system: carrageenan-induced toe swelling in SD rats; experiment: Carrageenan-induced acute toe swelling in rats; format: in vivo, rat; parameters: Swelling: unit not given here
Description: SD rats were divided into blank model group, dexamethasone-positive group (5 mg/kg) and mPEG-HM-1 test group. The drug was administered once a day, and the model group was given the same volume of normal saline for 3 days and fed normally. At the first hour after the last administration, 0.1 mL of 1% carrageenan was injected subcutaneously into the right hind paw of the rats to induce inflammation. The volume of the foot was measured at 1 h, 3 h, 5 h, and 7 h after inflammation. The degree of swelling of the foot was calculated according to the following formula: the degree of swelling of the foot (mL)=the volume of the foot after inflammation−the volume before inflammation. Record the number of milliliters of spilled liquid (method: use the ballpoint pen to circle as the measurement mark at the protruding point of the right joint, and then put the right hind foot of each mouse into the volume measuring device, so that the hind limb is exposed outside the cylinder, and the depth of the immersion was determined by coinciding the circle with the liquid surface. After the foot enters the liquid, the liquid level rises, and the volume of the overflow liquid is the volume of the right hind foot of the rat, and the normal volume of the right hind foot of each mouse is sequentially determined).

[4] = test system: human retinal vascular endothelial cells (HRCEC); experiment: MTT proliferation of human retinal vascular endothelial cells; format: cell-based; conditions: 48 h; for Inhibition rate: HRCEC proliferation; for A570 nm-A630 nm: HRCEC; for A570 nm-A630 nm / inhibition rate of HRCEC proliferation: MTT
Description: The activity of the angiogenesis inhibitor polypeptide to inhibit proliferation of human retinal vascular endothelial cells was examined by MTT assay. HRCEC cells were cultured in a 37° C., 5% CO2 incubator to a density of 90% or more, and collected by trypsinization. The cells were resuspended in the culture medium and counted under a microscope to adjust the cell concentration to 3.0×10^4 cells/mL. The cell suspension was inoculated into a 96-well plate at 100 μL per well and cultured overnight at 37° C. in a 5% CO2 incubator. After the cells were completely adhered, the angiogenesis inhibitor polypeptide was added as the administration group, and Avastin was used as the positive control group, and the culture media without any drug was used as a blank control group, and the culture media were diluted to each predetermined concentration. Each dilution was separately added to a 96-well plate at 100 μL per well and incubated for 48 h at 37° C. in a 5% CO2 incubator. 20 μL of 5 mg/mL MTT was added to each well of a 96-well plate and incubation was continued for 4 h. The medium was aspirated and dissolved in 100 μL of DMSO per well. […] The formula is as follows: PI (%)=1−administration group/negative group
The test was repeated 3 times independently. The results obtained by the test were expressed as mean±SD, and a statistical T test was performed. *P<0.05 was a significant difference, and **P<0.01 was a very significant difference.

[5] = test system: corneal neovascularization in BALB/c mice; experiment: Alkali-burn corneal neovascularization in BALB/c mice (CD31 microvessel density); format: in vivo, mouse; conditions: for Inhibition rate: corneal microvessel density vs control; for Inhibition rate / MVD: day 14 after alkali burn, intravitreal once a day for 1 week; for MVD: microvessel density (CD31) of cornea
Text: (1) Preparation of corneal neovascularization model induced by alkali burn in BALB/c mice: mice were randomly grouped and labeled as mPEG-HM-1 experimental group and control group, 5 […] in each group, respectively, was given mPEG-HM-1 and saline by Intravitreal injection after alkali burn, once a day for 1 week. The inflammatory reaction and neovascularization of the cornea were observed under slit lamp microscope at 1 d, 7 d, and 14 d after alkali burn. On the 14th day after alkali burn, the corneal neovascularization was recorded under the slit lamp microscope in the anterior segment of the eye. All the mice were euthanized by cervical dislocation and the eyeballs were removed, washed with saline to rid of blood, and was fixed in 4% paraformaldehyde for 1.5 h, dehydrated in PBS containing 30% sucrose overnight, embedded in OCT frozen section embedding agent, stored in −80° C. refrigerator, frozen section 8 μm, and underwent immunocytochemical detection of CD31 expression. (2) Quantitative measurement of corneal tissue microvessel density: Microvessel density (MVD) is an indicator for evaluating angiogenesis. Vascular endothelial cells were labeled with anti-CD31 antibody by immunohistochemistry, and the number of microvessels per unit area was counted to measure the degree of neovascularization. Standards for counting microvessels: Microscopically, the endothelial cells or cell clusters that are clearly demarcated from adjacent tissues in the corneal tissue and stained brown or brown are counted in the neovascularization. The number of new blood vessels in the whole section was counted under a 10×20 microscope. After the corneal tissue was photographed, the entire corneal tissue area was calculated by image processing software Image J, and the neovascular density of the whole section was determined. The test was repeated 3 times independently. The results obtained by the test were expressed as mean±SD, and a statistical T test was performed. *P<0.05 was a significant difference, and **P<0.01 was a very significant difference.

[6] = 80 mg/kg once a day for 3 days, 1 h after carrageenan
[7] = 80 mg/kg once a day for 3 days, 3 h after carrageenan
[8] = 80 mg/kg once a day for 3 days, 5 h after carrageenan
[9] = 80 mg/kg once a day for 3 days, 7 h after carrageenan
[10] = 160 mg/kg once a day for 3 days, 1 h after carrageenan
[11] = 160 mg/kg once a day for 3 days, 3 h after carrageenan
[12] = 160 mg/kg once a day for 3 days, 5 h after carrageenan
[13] = 160 mg/kg once a day for 3 days, 7 h after carrageenan
[14] = 20 mg/kg once a day for 3 days, 1 h after carrageenan
[15] = 20 mg/kg once a day for 3 days, 3 h after carrageenan
[16] = 20 mg/kg once a day for 3 days, 5 h after carrageenan
[17] = 20 mg/kg once a day for 3 days, 7 h after carrageenan
[18] = 40 mg/kg once a day for 3 days, 1 h after carrageenan
[19] = 40 mg/kg once a day for 3 days, 3 h after carrageenan
[20] = 40 mg/kg once a day for 3 days, 5 h after carrageenan
[21] = 40 mg/kg once a day for 3 days, 7 h after carrageenan

Substance | rate of growth inhibition [1] | rate of growth inhibition [2] | Swelling [3, 6] | Swelling [3, 7] | Swelling [3, 8] | Swelling [3, 9] | Swelling [3, 10] | Swelling [3, 11] | Swelling [3, 12] | Swelling [3, 13] | Inhibition rate ([4]; 80 μg/mL) | A570 nm-A630 nm ([4]; 80 μg/mL) | Inhibition rate ([4]; 100 μg/mL) | A570 nm-A630 nm ([4]; 100 μg/mL) | Inhibition rate ([4]; 120 μg/mL) | A570 nm-A630 nm ([4]; 120 μg/mL) | Inhibition rate [5] | MVD [5] | Inhibition rate ([4]; 60 μg/mL) | A570 nm-A630 nm ([4]; 60 μg/mL) | further results
mPEG2-NHS40k-Arg-Gly-Ala-Asp-Arg-Ala-Gly-Gly-Gly-Gly-Arg-Gly-Asp ({mPEG2‑NHS 40 kDa}-RGADRAGGGGRGD) [mPEG2-NHS40k-HM-1] | 57.33 ± 14.28% | 45.60 ± 10.11% | 0.26 ± 0.12 | 0.32 ± 0.11 | 0.42 ± 0.14 | 0.35 ± 0.17 | 0.27 ± 0.10 | 0.35 ± 0.18 | 0.41 ± 0.13 | 0.34 ± 0.19 | 42.52%* | 0.7598 ± 0.07143 | 51.86%** | 0.6363 ± 0.07532 | 62.78%* | 0.4920 ± 0.07953 | 43.19% | 37.91 ± 4.273** | – | – | –
mPEG-ALD5k-Arg-Gly-Ala-Asp-Arg-Ala-Gly-Gly-Gly-Gly-Arg-Gly-Asp ({mPEG‑ALD 5 kDa}-RGADRAGGGGRGD) [mPEG-ALD5k-HM-1] | 61.12 ± 18.39% | 35.93 ± 10.29% | – | – | – | – | – | – | – | – | – | – | – | – | – | – | 45.09% | 36.64 ± 3.909* | 61.53%* | 05042 ± 0.08135 | Swelling ([3]; 10 mg/kg once a day for 3 days, 1 h after carrageenan): 0.22 ± 0.10; Swelling ([3]; 10 mg/kg once a day for 3 days, 3 h after carrageenan): 0.35 ± 0.13; Swelling ([3]; 10 mg/kg once a day for 3 days, 5 h after carrageenan): 0.41 ± 0.15; Swelling ([3]; 10 mg/kg once a day for 3 days, 7 h after carrageenan): 0.31 ± 0.12; Swelling [3, 14]: 0.21 ± 0.11; Swelling [3, 15]: 0.34 ± 0.19; Swelling [3, 16]: 0.37 ± 0.11; Swelling [3, 17]: 0.35 ± 0.13; Inhibition rate ([4]; 20 μg/mL): 42.02%*; A570 nm-A630 nm ([4]; 20 μg/mL): 0.7599 ± 0.08933; Inhibition rate ([4]; 40 μg/mL): 51.93%**; A570 nm-A630 nm ([4]; 40 μg/mL): 0.6301 ± 0.08011
mPEG-ALD10k-Arg-Gly-Ala-Asp-Arg-Ala-Gly-Gly-Gly-Gly-Arg-Gly-Asp ({mPEG‑ALD 10 kDa}-RGADRAGGGGRGD) [mPEG-ALD10k-HM-1] | 83.04 ± 18.74% | 52.68 ± 13.12% | – | – | – | – | – | – | – | – | 73.89%* | 0.3422 ± 0.07412 | – | – | – | – | 53.83% | 30.81 ± 5.465** | 58.62%** | 0.5424 ± 0.07508 | Swelling [3, 14]: 0.24 ± 0.12; Swelling [3, 15]: 0.36 ± 0.13; Swelling [3, 16]: 0.42 ± 0.15; Swelling [3, 17]: 0.32 ± 0.10; Swelling [3, 18]: 0.21 ± 0.10; Swelling [3, 19]: 0.31 ± 0.20; Swelling [3, 20]: 0.36 ± 0.13; Swelling [3, 21]: 0.33 ± 0.12; inhibition of carrageenan-induced toe swelling (in words) ([3]; rats, 40 mg/kg, once a day for 3 days): most effective; Inhibition rate ([4]; 40 μg/mL): 48.34%*; A570 nm-A630 nm ([4]; 40 μg/mL): 0.6771 ± 0.07904; inhibition rate of HRCEC proliferation ([4]; 80 μg/mL): 73.89%; inhibition rate of corneal neovascularization ([5]; BALB/c mice, alkali burn, intravitreal injection once a day for 1 week): 53.83%
mPEG-ALD20k-Arg-Gly-Ala-Asp-Arg-Ala-Gly-Gly-Gly-Gly-Arg-Gly-Asp ({mPEG‑ALD 20 kDa}-RGADRAGGGGRGD) [mPEG-ALD20k-HM-1] | 75.66 ± 20.10% | 45.29 ± 11.63% | 0.25 ± 0.09 | 0.32 ± 0.11 | 0.40 ± 0.15 | 0.32 ± 0.16 | – | – | – | – | 55.90%** | 0.5780 ± 0.06987 | 68.15%* | 0.4175 ± 0.07301 | – | – | 48.04% | 34.67 ± 6.953** | 46.21%* | 0.7050 ± 0.07965 | Swelling [3, 18]: 0.27 ± 0.13; Swelling [3, 19]: 0.34 ± 0.16; Swelling [3, 20]: 0.41 ± 0.14; Swelling [3, 21]: 0.35 ± 0.13; inhibition rate of HRCEC proliferation ([4]; 100 μg/mL): 68.15% and 69.12%
mPEG-ALD40k-Arg-Gly-Ala-Asp-Arg-Ala-Gly-Gly-Gly-Gly-Arg-Gly-Asp ({mPEG‑ALD 40 kDa}-RGADRAGGGGRGD) [mPEG-ALD40k-HM-1] | 70.62 ± 19.14% | 43.22 ± 10.31% | 0.26 ± 0.14 | 0.35 ± 0.13 | 0.43 ± 0.14 | 0.33 ± 0.17 | 0.24 ± 0.13 | 0.34 ± 0.14 | 0.44 ± 0.15 | 0.34 ± 0.15 | 43.11%* | 0.7457 ± 0.07094 | 54.23%** | 0.5999 ± 0.07138 | 62.08%* | 0.4970 ± 0.07653 | 46.11% | 35.96 ± 6.862** | – | – | –
